{"source": "patent US20230286919A1", "about": "“ISOQUINOLINE DERIVATIVES FOR USE IN THERAPY” (Vestlandets Innovasjonsselskap AS, priority 2020, published 2023)", "key": {"[1]": {"system": "STAT3 activity", "experiment": "STAT3 luciferase reporter assay in HEK293T cells with IL-6", "type": "cell-based, human", "details": "20 ng/ml IL-6, 24 hrs, compared with cryptotanshinone", "procedure": "Luciferase activity was measured by the Dual Luciferase Assay Kit (Promega) using a Luminescence Microplate Reader (Biotek). Values were normalized to Renilla luciferase activity of DMSO vehicle.\nAll data are represented as the average±s.e.m (n=3). Significance was verified by using unpaired two-tailed Student's t-test. *p s 0.05."}, "[2]": {"system": "phosphorylated STAT3 (Tyr705) over pSTAT1 (S727)", "experiment": "Western blot, pSTAT3 (Tyr705) and pSTAT1 (S727) in DU145 cells", "type": "cell-based, human", "details": "24 hrs"}, "[3]": {"system": "DNA-binding domain of STAT1, STAT3, STAT5A, STAT5B", "experiment": "STAT family DNA binding assay on nuclear extracts of DU145 cells", "type": "cell-based, human", "details": "5-20 μM, 24 hrs", "procedure": "The nuclear extraction was performed according to the STAT Family Transcription Factor Assay Kit (Abcam, ab207228). First, cells were washed with ice-cold PBS and Phosphatase Inhibitors Cocktail (125 mM NaF, […] p-glycerophosphatase, 250 mM PNPP, 25 mM NaVO3) in ice-cold PBVS was added and cells scraped off the dish. Then cells were collected at 300×g for 5 minutes at 4° C. The pellet was resuspended in hypotonic buffer (20 mM Hepes pH7.5, 5 mM NaF, 10 μM Na2MoO4, 0.1 mM EDTA) and 10% NP-40 was added to a final concentration 0.5% and mixed well. The mixture was centrifugated at 4° C. for 30 seconds in a microcentrifuge and supernatant was discarded. […] Stop solution was added when the wells turned medium to dark blue followed by measurement of absorbance at OD 450 nm. […]"}, "[4]": {"system": "STAT3", "experiment": "DARTS (drug affinity responsive target stability) assay in EPT3M1-STAT3 cell lysates", "type": "binding, human", "details": "200 μM", "procedure": "EPT3M1-STAT3 cells were lysed with cold M-PER buffer (Thermo Fisher Scientific, Pierce cat.78501) containing protease (Roche, Basel, Switzerland, cat. no. 11836153001) and phosphatase inhibitors (Pierce cat. no. 78420) and centrifugated (18,000×g for 10 min at 4° C.). Lysates were diluted to the same final volume and proteolysed in TNC buffer [50 mM Tris-HCl (pH 8.0), 50 mM NaCl, 10 mM CaCl2]. 200 μM 323-1 or 200 μM 323-2 or the same volume of DMSO were added and incubated for 1 hour at RT. Pronase solution (1.25 mg/ml, 1:100 stock solution) was diluted serially by mixing with 1×TNC buffer to create 1:300, 1:1000, 1:3000 and 1:10000 Pronase stock aliquots. Pronase was added into both DMSO and drug groups and incubated for 30 min at RT. Digestion was stopped by adding 4× loading buffer and heating to 90° C. for 10 min immediately prior to the Western blot assay according to Lomenick, et al. (Proc Natl Acad Sci USA, 2009; 106: 21984-9) and Lomenick wt al. (ACS Chem Biol. 2011; 6: 34-46). […]"}}, "data": [{"molecule": "C[C@@H]1CCC(c2cc3c4c(cncc4c2)[C@@H](C)C3)=C1C=O", "note": "[323-2, (15S,2R)-Delavatine A]", "values": [{"measurement": "Inhibitory effect on STAT3 activation (luciferase reporter)", "setting": "[1]", "value": "stronger inhibitory effect on STAT3 activation than cryptotanshinone"}, {"measurement": "Expression of phosphorylated STAT3 at Tyr705 compared with S3I-201", "setting": "[2]", "value": "better effect than S3I-201"}, {"measurement": "Selectivity, phosphorylated STAT3 (Tyr705) over pSTAT1 (S727)", "setting": "[2]", "value": "selective inhibitory effect"}, {"measurement": "Effect on DNA binding of STAT1, STAT3, STAT5A, STAT5B", "setting": "[3]", "value": "neither 323-1 nor 323-2 affected"}, {"measurement": "Digestion of non-target proteins STAT1, JAK2, Src, β-actin", "setting": "[4]", "value": "unchanged"}, {"measurement": "Protection of STAT3 against pronase digestion", "setting": "[4]", "value": "protection of the target protein STAT3"}]}]}
